The text below walks through data of US7691805B2, “Antimicrobial compounds” (Neobiotics AB, priority 2004, dated 2010).

Converted amounts (≈) assume the structure as drawn.

The test system of series [1] is HSV-1 F (Herpes Simplex Virus). Put plainly: Antiviral inhibition analysis and plaque counting test in GMK AH 1 cells. The conditions noted are these: 0.4 mM in 1% DMSO; analysed in the same way as Cystapep 1. The format is cell-based.
Series [2] has as its system Staphylococci incl. multiresistant MRSA. Put plainly: Agar well diffusion. The conditions noted are these: 40 ul of 1 mg/ml in DMSO per well.
Series [3] has as its system Streptococcus: group B. Put plainly: Agar well diffusion. The conditions noted are these: 40 ul of 1 mg/ml in DMSO per well.
In series [4] the test system is MRSA. Put plainly: Growth inhibition of clinical isolates. The conditions noted are these: approximately 100 strains of MRSA, several with additional resistance markers.
For series [5], the system named is E. coli and other Gram-negatives. Put plainly: Agar well diffusion. The conditions noted are these: for antibacterial effect: E. coli and other Gram-negatives, 40 ul of 1 mg/ml in DMSO per well.
Series [6] relates to Streptococcus: group A. Put plainly: Agar well diffusion. The conditions noted are these: 40 ul of 1 mg/ml in DMSO per well. For orientation: In agar diffusion tests the substance spreads into inoculated agar from a disc or well.
For series [7], the system named is Streptococcus: group G. Put plainly: Agar well diffusion. The conditions noted are these: 40 ul of 1 mg/ml in DMSO per well.
In series [8] the test system is CNS incl. resistant and multiresistant MRSE. Put plainly: Agar well diffusion. The conditions noted are these: 40 ul of 1 mg/ml in DMSO per well.
In series [9] the test system is poliovirus type 1. It counts as cell-based. The conditions noted are these: 0.4 mM in 1% DMSO; analysed in the same way as Cystapep 1.
For series [10], the system named is α-haemolytic Streptococci. Put plainly: Agar well diffusion. The conditions noted are these: 40 ul of 1 mg/ml in DMSO per well.
The subject of series [11] is S. pneumoniae. Put plainly: Agar well diffusion. The conditions noted are these: 40 ul of 1 mg/ml in DMSO per well.
Series [12] concerns Streptococcus: group C. Put plainly: Agar well diffusion. The conditions noted are these: 40 ul of 1 mg/ml in DMSO per well.
Series [13] concerns Aspergillus niger ATCC 16404. Put plainly: Antifungal MIC in Sabouraud broth. It counts as cell-based. The conditions noted are these: 25° C. for 7 days; inoculum 10^3-10^4 cfu/ml. On the procedure: (§1) The minimal inhibitory concentration (MIC) was determined using a method with Sabouraud broth (Becton Dickinson) and an initial inoculum 10^3-10^4 cfu/ml. Polypropylene 96-well plates (Nunc) were incubated at 25° C. for 48 h (for Candida albicans ATCC 10231) or 7 days (for Aspergillus niger ATCC 16404). The MIC was taken as the lowest drug concentration at which noticeable growth was inhibited. The experiments were performed in duplicate.

Series [14] has as its system Candida albicans ATCC 10231. Put plainly: Antifungal MIC in Sabouraud broth. It counts as cell-based. The conditions noted are these: 25° C. for 48 h; inoculum 10^3-10^4 cfu/ml. On the procedure: as §1
Series [15] deals with GAS. Put plainly: MIC by broth dilution. It counts as cell-based, group A Streptococci. The conditions noted are these: growth media without DMSO. On the procedure:
(§2) MIC/MBC determinations were performed by broth dilution according to established procedures, well known for a person skilled in the art.
On the technique in general: Broth dilution looks for growth in wells or tubes with falling amounts of substance.

The test system of series [16] is streptococcal challenge. Put plainly: Lethal streptococcal challenge in the mouse. The format is in vivo.
The test system of series [17] is labial herpes. Put plainly: Topical application in softening cream to a beginning labial herpes outbreak. It counts as in vivo, human. The conditions noted are these: 0.2 ml solution (0.1 g/l) in softening cream on the lip; performed twice. The method, then:
Cp1 was added to a softening cream and 0.2 ml solution (0.1 g/l) was applied to an area of a beginning labial herpes outbreak on the lip of a person. After 3-4 hours the symptoms was gone. The experiment was performed twice.

Series [18] deals with S.aureus. Put plainly: MIC by broth dilution. It counts as cell-based. The conditions noted are these: growth media without DMSO. The method, then: as §2
Series [19] has as its system L. monocytogenes. Put plainly: Agar well diffusion. The conditions noted are these: 40 ul of 1 mg/ml in DMSO per well.
The nature of series [20]: Solubility. The format is physicochemical. The conditions noted are these: KCl gradient eluent during ion exchange isolation.

Consider `CC(C)CC(NC(=O)C(CCCNC(=N)N)NC(=O)OCc1ccccc1)C(=O)NC(CNC(=O)/C=C/c1ccccc1)Cc1ccccc1` (stereo not drawn) [(Phe^4)Cp1], for which the “effect against HSV-1” value in [1] was “found to have effect”. Also, the antibacterial effect result was “+” in [2]; “+” in series [3]; “−” in [5]; “+” in series [6]; “+” in [7]; “+” in series [8]. Besides, the antibacterial effect result in [10] is listed as “−”; in [11] it was “+”; in [12], “+”. For the same compound, the “growth inhibition of MRSA strains” value in series [4] was “strongly inhibited in their growth”. The effect against polio result in series [9] was “found to have effect”.

`CC(C)CC(NC(=O)C(CCCN=C(N)N)NC(=O)OCc1ccccc1)C(=O)N[C@H](CNC(=O)/C=C/c1ccccc1)C(C)C` (stereo in doubt) [Cp1, (2S)-2-[(N^α-Benzyloxycarbonyl-Arginyl-Leucyl)-Amino]-1-Trans-Cinnamoylamino-3-Methylbutane]: the antibacterial effect entry is “+” in series [2]; “+” in series [3]; “−” in series [5]; “+” in [6]; “+” in series [7]; “+” in [8]. In addition, the antibacterial effect result in series [10] is “−”; in [19], “+”; in series [11], “+”; in series [12], “+”. Also, in [13], the “MIC Aspergillus niger ATCC 16404” value came to 64 µg/mL (≈ 101 µM). Also, the “MIC Candida albicans ATCC 10231” value in [14] is recorded as 32 µg/ml. The MIC entry in series [15] and in [18] was “approximately 16 mg/L” in each case. Moreover, the “protective capacity for lethal streptococcal challenge” value in [16] is given as “strong protective capacity”. For the same compound, in series [4], the “growth inhibition of MRSA strains” value is given as “strongly inhibited in their growth”. Moreover, the “activity against gram-negative bacteria” value in series [5] is “low or no activity”. For the same compound, the “time after which the symptoms were gone” value in series [17] is 3 to 4 h. The “solubility in the presence of salts” value in [20] was “weak solubility”.

On to `CC(=O)NC(Cc1ccccc1)C(=O)NCC(NC(=O)C(CC(C)C)NC(=O)C(CCCNC(=N)N)NC(=O)OCc1ccccc1)C(C)C` (stereo not drawn) [(AcPhe^5)Cp1], for which the antibacterial effect entry was “+” in series [2]; “+” in series [3]; “−” in series [5]; “+” in [6]; “+” in series [7]; “+” in series [8]. Moreover, the antibacterial effect result in series [10] is given as “−”; in [19], “+”; in series [11], “+”; in series [12], “+”. Also, the “growth inhibition of MRSA strains” value in series [4] was “strongly inhibited in their growth”.

Consider `CC(C)CC(CNC(=O)/C=C/c1ccccc1)NC(=O)C(CC(C)C)NC(=O)C(CCCNC(=N)N)NC(=O)OCc1ccccc1` (stereo not drawn) [(Leu^4)Cp1], for which the “effect against HSV-1” value in [1] is “found to have effect”. The antibacterial effect result in [2] is listed as “+”; in series [3], “+”; in series [5], “−”; in [6] it was “+”; in series [7], “+”; in series [8], “+”. For the same compound, the antibacterial effect entry in [10] is “−”; in series [11], “+”; in series [12], “+”. In series [4], the “growth inhibition of MRSA strains” value is reported as “strongly inhibited in their growth”. In addition, the effect against polio entry in series [9] is on record as “found to have effect”.
